According to patent US10517889B2, “Modulators of SMAD7 expression” (Ionis Pharmaceuticals, Inc., priority 2017, dated 2019):

Experiments:
human SMAD7 mRNA = test: Antisense inhibition of human SMAD7 mRNA expression in Hep3B cells by 3-10-3 cEt gapmers, 10,000 nM, electroporation (Example 2); type: cell-based; conditions: approximately 24 hours
Outline: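 qRT-PCR (RTS5062) of SMAD7 mRNA, normalised to RIBOGREEN total RNA, gave percent inhibition relative to untreated controls. Hep3B cells at 20,000 per well received 10,000 nM oligonucleotide by electroporation, with ~24 h treatment.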

[1] = Oligonucleotide concentration in liver and colon by LC-MS/MS after subcutaneous administration in CD-1 mice (Example 6); type: in vivo; conditions: 50 mg/kg subcutaneously twice a week for 7 weeks, 48 hours after the last dose
Method: (§1) Groups of 8-9 week old male CD-1 mice were injected subcutaneously twice a week for 7 weeks with 50 mg/kg of Ionis oligonucleotides (100 mg/kg/week dose). Each group contained 4 mice. One group of male CD-1 mice was injected subcutaneously twice a week for 7 weeks with PBS. Plasma was collected for analysis on day 28.
Oligonucleotide concentrations in the liver and colon were analyzed using LC-MS/MS method.

mouse Smad7 mRNA = test: Pharmacology: mouse Smad7 mRNA expression in liver, kidney, duodenum, ileum and colon after subcutaneous administration in CD-1 mice (Example 6); type: in vivo; conditions: 50 mg/kg subcutaneous twice weekly for 7 weeks, normalized to GAPDH
Method: as §1
The pharmacological activity of the Ionis oligonucleotides in mice was assessed by measuring mouse Smad7 mRNA expression in liver, kidney, duodenum, ileum, and colon at necropsy.
Tissue samples from all mice were analyzed for Smad7 mRNA expression using the primer probe set HTS7555 (forward sequence […], designated SEQ ID NO: 2737; reverse sequence […], designated SEQ ID NO: 2738; probe sequence […], designated SEQ ID NO: 2739), which was normalized to mRNA levels of the housekeeping gene, GAPDH. One-way ANOVA with Dunnet's comparison test was used for statistical analysis.

[2] = Hematology assays after oral gavage in CD-1 mice (Example 7); type: in vivo; design: RBC: unit not given here; conditions: 500 mg/kg oral gavage once daily for 4 weeks
Method: Groups of 7-8 week old male CD-1 mice were given an oral gavage dose once daily for 4 weeks of 500 mg/kg of Ionis SMAD7 oligonucleotides. Each group contained 8 mice. One group of male CD-1 mice was administered saline by oral gavage daily.
Blood obtained from all mouse groups was measured by an ADVIA2120i hematology analyzer (Siemens, USA) for measurements of the various blood cells, as well as other hematology markers. None of the Ionis SMAD7 oligonucleotides caused changes in the levels of any of the hematology markers outside the expected range for antisense oligonucleotides.

[3] = Body and organ weights after subcutaneous administration in beagle dogs (Example 8); type: in vivo; conditions: 30 mg/kg subcutaneous days 1, 3, 5, 8, 15, 22, 29, end of study
Method: (§2) There were 4 animals per group.
Body weights as well as kidney, spleen, liver (with gall bladder), mesenteric lymph node, heart, and thymus weights were measured at the end of the study. […] Ionis SMAD7 oligonucleotides that caused any changes in organ weights outside the expected range for antisense oligonucleotides were excluded from further studies.

[4] = Hematology assays after subcutaneous administration in beagle dogs (Example 8); type: in vivo; conditions: 30 mg/kg subcutaneous days 1, 3, 5, 8, 15, 22, 29
Method: as §2
Blood samples were collected from the cephalic vein or saphenous vein of each animal. About 0.5 mL of blood samples was put into tubes containing the potassium salt of EDTA. Blood obtained from all dog groups was measured using an ADVIA2120i hematology analyzer for measurements of the various blood cells, as well as other hematology markers.

[5] = Oligonucleotide concentration in tissues by LC-MS/MS after subcutaneous administration in beagle dogs (Example 8); type: in vivo; conditions: 30 mg/kg subcutaneous, 48 hours after the last dose
Method: as §2
Oligonucleotide concentrations of both ION 830025 and ION 798781 were detected in various tissues by LC-MS/MS analysis. The results are presented below, expressed as μg/g tissue. The data was collected 48 hours after the last dose.

[6] = SMAD7 mRNA, Hep3B cells, 10,000 nM antisense oligonucleotide, electroporation, primer probe set RTS5062, relative to untreated control cells

790615 (CCAATGAGAATGCTTC; 3-10-3 cEt gapmer, further chemistry not given here) [compound 790615]
% Inhibition (human SMAD7 mRNA; Hep3B cells, electroporation with 10,000 nM antisense oligonucleotide, primer probe set RTS5062, relative to untreated control cells): 38% | % Inhibition (human SMAD7 mRNA; [6]): 40% | Oligonucleotide concentration, Colon [1]: 13 μg/g tissue | Oligonucleotide concentration, Liver [1]: 75 μg/g tissue | % inhibition of Smad7 mRNA expression (compared to control), Kidney (mouse Smad7 mRNA): 23% | % inhibition of Smad7 mRNA expression (compared to control), Liver (mouse Smad7 mRNA): 18% | Basophils [2]: 0.01 10^3/μL | Eosinophils [2]: 0.11 10^3/μL | Hematocrit [2]: 52.2% | Hemoglobin [2]: 15.2 g/dL | Lymphocytes [2]: 78.3% | MCH [2]: 15.0 pg | MCHC [2]: 29.1 g/dL | MCV [2]: 51.6 fL | Monocytes [2]: 0.15 10^3/μL | Neutrophils [2]: 16.0% | RBC [2]: 10.1 | Reticulocytes [2]: 2.8% | WBC [2]: 5.4 10^3/μL | platelets [2]: 1033 10^3/μL | Body weight [3]: 7372 g | Heart weight [3]: 63.6 g | Kidney weight [3]: 44.1 g | Liver weight [3]: 253.7 g | Mesenteric LN weight [3]: 10.2 g | Spleen weight [3]: 32.3 g | Thymus weight [3]: 9.9 g | Basophils [4]: 0.5% | Eosinophils [4]: 2.6% | Hematocrit [4]: 45% | Hemoglobin [4]: 14.5 g/dL | Lymphocytes [4]: 36% | MCH [4]: 21.9 pg | MCHC [4]: 32.5 g/dL | MCV [4]: 68 fL | Monocytes [4]: 7.9% | Neutrophils [4]: 53% | PLT [4]: 242 ^3/μL | RBC [4]: 6.6 ^6/L | Reticulocytes [4]: 0.7% | WBC [4]: 7.1 ^3/μL | Full length oligonucleotide, Distal colon [5]: 17 µg/g | Full length oligonucleotide, Duodenum [5]: 17 µg/g | Full length oligonucleotide, Ileum [5]: 18 µg/g | Full length oligonucleotide, Kidney [5]: 1156 µg/g | Full length oligonucleotide, Liver [5]: 220 µg/g | Full length oligonucleotide, Proximal colon [5]: 17 µg/g

798781 (CGTAAGATTCACAGCA; 3-10-3 cEt gapmer, further chemistry not given here) [compound 798781]
% Inhibition (human SMAD7 mRNA; Hep3B cells, electroporation with 10,000 nM antisense oligonucleotide, SMAD7 mRNA by RT-PCR (RTS5062), relative to untreated control cells): 52% | % Inhibition (human SMAD7 mRNA; [6]): 69% | Oligonucleotide concentration, Colon [1]: 63 μg/g tissue | Oligonucleotide concentration, Liver [1]: 312 μg/g tissue | % inhibition of Smad7 mRNA expression (compared to control), Kidney (mouse Smad7 mRNA): 18% | % inhibition of Smad7 mRNA expression (compared to control), Liver (mouse Smad7 mRNA): 28% | Basophils [2]: 0.02 10^3/μL | Eosinophils [2]: 0.26 10^3/μL | Hematocrit [2]: 52.0% | Hemoglobin [2]: 15.2 g/dL | Lymphocytes [2]: 74.0% | MCH [2]: 15.1 pg | MCHC [2]: 29.1 g/dL | MCV [2]: 51.7 fL | Monocytes [2]: 0.18 10^3/μL | Neutrophils [2]: 18.0% | RBC [2]: 10.1 | Reticulocytes [2]: 3.0% | WBC [2]: 5.7 10^3/μL | platelets [2]: 1099 10^3/μL | Body weight [3]: 6661 g | Heart weight [3]: 53.4 g | Kidney weight [3]: 40.0 g | Liver weight [3]: 242.9 g | Mesenteric LN weight [3]: 7.8 g | Spleen weight [3]: 26.4 g | Thymus weight [3]: 6.0 g | Basophils [4]: 0.5% | Eosinophils [4]: 2.7% | Hematocrit [4]: 48% | Hemoglobin [4]: 16.2 g/dL | Lymphocytes [4]: 34% | MCH [4]: 22.3 pg | MCHC [4]: 33.6 g/dL | MCV [4]: 67 fL | Monocytes [4]: 6.5% | Neutrophils [4]: 56% | PLT [4]: 191 ^3/μL | RBC [4]: 7.3 ^6/L | Reticulocytes [4]: 0.6% | WBC [4]: 7.3 ^3/μL | Full length oligonucleotide, Distal colon [5]: 68 µg/g | Full length oligonucleotide, Duodenum [5]: 97 µg/g | Full length oligonucleotide, Ileum [5]: 177 µg/g | Full length oligonucleotide, Kidney [5]: 3300 µg/g | Full length oligonucleotide, Liver [5]: 964 µg/g | Full length oligonucleotide, Proximal colon [5]: 73 µg/g
